Counter-ions that a name gives are not always drawn.
How the values were obtained:
Histone deacetylase 2 = Histone deacetylase 2 (Homo sapiens, UniProt Q92769); assay: Inhibition of HDAC2 (unknown origin)
Histone deacetylase 8 = Histone deacetylase 8 (Homo sapiens, UniProt Q9BY41); assay: Inhibition of HDAC8 (unknown origin)
[1] = molecular target: T1, Protein deacetylase HDAC6 (Homo sapiens, UniProt Q9UBN7); assay: Inhibition of HDAC6 (unknown origin)
T1 sequence (Q9UBN7 whole entry): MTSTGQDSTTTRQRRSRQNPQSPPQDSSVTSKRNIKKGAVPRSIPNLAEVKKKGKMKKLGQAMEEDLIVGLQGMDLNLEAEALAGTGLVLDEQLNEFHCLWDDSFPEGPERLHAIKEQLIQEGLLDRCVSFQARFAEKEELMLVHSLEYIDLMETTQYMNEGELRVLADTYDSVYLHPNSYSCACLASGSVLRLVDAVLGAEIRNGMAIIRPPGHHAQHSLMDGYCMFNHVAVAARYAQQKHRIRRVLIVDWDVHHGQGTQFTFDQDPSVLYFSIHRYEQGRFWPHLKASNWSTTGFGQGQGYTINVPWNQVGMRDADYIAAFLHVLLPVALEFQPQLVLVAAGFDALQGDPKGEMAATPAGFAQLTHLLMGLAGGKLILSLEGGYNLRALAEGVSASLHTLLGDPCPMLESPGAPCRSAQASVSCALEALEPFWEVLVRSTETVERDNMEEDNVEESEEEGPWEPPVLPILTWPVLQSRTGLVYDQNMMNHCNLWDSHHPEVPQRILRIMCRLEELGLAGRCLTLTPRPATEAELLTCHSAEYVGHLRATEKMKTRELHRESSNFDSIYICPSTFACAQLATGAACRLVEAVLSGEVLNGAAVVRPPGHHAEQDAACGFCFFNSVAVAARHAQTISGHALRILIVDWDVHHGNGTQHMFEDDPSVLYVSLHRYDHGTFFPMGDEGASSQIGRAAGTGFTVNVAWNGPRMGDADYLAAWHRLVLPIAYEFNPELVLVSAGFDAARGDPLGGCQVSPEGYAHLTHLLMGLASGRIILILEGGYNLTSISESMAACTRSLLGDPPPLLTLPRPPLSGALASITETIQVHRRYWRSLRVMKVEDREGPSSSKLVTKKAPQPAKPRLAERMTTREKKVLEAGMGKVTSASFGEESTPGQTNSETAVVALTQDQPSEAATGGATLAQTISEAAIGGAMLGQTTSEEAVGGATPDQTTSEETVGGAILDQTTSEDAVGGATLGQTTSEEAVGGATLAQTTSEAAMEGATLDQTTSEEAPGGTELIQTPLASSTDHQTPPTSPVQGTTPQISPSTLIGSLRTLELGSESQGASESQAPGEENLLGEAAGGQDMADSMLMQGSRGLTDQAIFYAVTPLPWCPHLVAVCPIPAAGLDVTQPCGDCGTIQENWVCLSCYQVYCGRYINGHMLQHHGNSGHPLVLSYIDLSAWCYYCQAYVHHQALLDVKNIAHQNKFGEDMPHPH

MCF7 [2] = assay: Antiproliferative activity against human MCF7 cells assessed as inhibition of cell growth by MTT assay; assay type: functional, cell-based
SH-SY5Y = assay: Antiproliferative activity against human SH-SY5Y cells assessed as inhibition of cell growth by MTT assay; assay type: functional, cell-based
Histone deacetylase 1 = Histone deacetylase 1 (Homo sapiens, UniProt Q13547); assay: Inhibition of HDAC1 (unknown origin)
Sequence of Histone deacetylase 1 (Q13547 whole entry): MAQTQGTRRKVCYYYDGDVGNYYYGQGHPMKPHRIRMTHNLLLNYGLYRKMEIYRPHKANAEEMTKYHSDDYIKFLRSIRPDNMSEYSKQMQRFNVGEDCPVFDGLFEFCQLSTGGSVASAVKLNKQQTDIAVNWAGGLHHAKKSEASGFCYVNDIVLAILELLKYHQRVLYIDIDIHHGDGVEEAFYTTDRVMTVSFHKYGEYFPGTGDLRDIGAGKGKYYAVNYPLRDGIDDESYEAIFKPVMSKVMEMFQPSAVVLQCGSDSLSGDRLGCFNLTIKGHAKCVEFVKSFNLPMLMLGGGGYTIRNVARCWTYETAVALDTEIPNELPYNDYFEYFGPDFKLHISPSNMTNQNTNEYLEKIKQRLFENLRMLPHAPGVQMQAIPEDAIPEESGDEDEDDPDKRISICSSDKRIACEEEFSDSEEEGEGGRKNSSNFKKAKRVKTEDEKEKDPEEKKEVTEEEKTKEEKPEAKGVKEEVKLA

Histone deacetylase 3 = Histone deacetylase 3 (Homo sapiens, UniProt O15379); assay: Inhibition of HDAC3 (unknown origin)
Sequence of Histone deacetylase 3 (O15379 whole entry): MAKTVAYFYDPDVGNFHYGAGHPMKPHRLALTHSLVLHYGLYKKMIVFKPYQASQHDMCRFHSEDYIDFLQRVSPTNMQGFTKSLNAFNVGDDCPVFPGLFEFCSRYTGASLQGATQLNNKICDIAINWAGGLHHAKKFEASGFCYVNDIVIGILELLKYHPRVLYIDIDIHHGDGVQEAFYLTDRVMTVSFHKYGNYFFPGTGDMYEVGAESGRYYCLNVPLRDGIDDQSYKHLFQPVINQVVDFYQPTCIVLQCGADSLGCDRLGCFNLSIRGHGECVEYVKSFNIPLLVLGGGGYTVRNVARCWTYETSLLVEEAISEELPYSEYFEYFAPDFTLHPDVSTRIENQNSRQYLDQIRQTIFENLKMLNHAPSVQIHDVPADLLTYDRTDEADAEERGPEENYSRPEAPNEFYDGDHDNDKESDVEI

NCI-H929 = assay: Antiproliferative activity against human NCI-H929 cells assessed as inhibition of cell growth by MTT assay; assay type: functional, cell-based
U-266 = assay: Antiproliferative activity against human U-266 cells assessed as inhibition of cell growth by MTT assay; assay type: functional, cell-based
U-937 [3] = assay: Antiproliferative activity against human U-937 cells assessed as inhibition of cell growth by MTT assay; assay type: functional, cell-based
HL-60 = assay: Antiproliferative activity against human HL-60 cells assessed as inhibition of cell growth by MTT assay; assay type: functional, cell-based
MCF7 [4] = assay: Cytotoxicity against human MCF7 cells assessed as inhibition of cell growth by SRB assay; assay type: functional, cell-based
Histone deacetylase = assay: Inhibition of HDAC (unknown origin); assay type: protein assay, Homo sapiens
NCI-H460 = assay: Cytotoxicity against human NCI-H460 cells assessed as inhibition of cell growth by MTT assay; assay type: functional, cell-based
EJ = assay: Cytotoxicity against human EJ cells assessed as inhibition of cell growth by MTT assay; assay type: functional, cell-based
SMMC-7721 = assay: Cytotoxicity against human SMMC-7721 cells assessed as inhibition of cell growth by MTT assay; assay type: functional, cell-based
HepG2 = assay: Cytotoxicity against human HepG2 cells assessed as inhibition of cell growth by MTT assay; assay type: functional, cell-based
HT-29 = assay: Cytotoxicity against human HT-29 cells assessed as inhibition of cell growth by MTT assay; assay type: functional, cell-based
KB-V1 = assay: Cytotoxicity against human vinblastine resistant KB-V1 cells assessed as inhibition of cell growth by MTT assay; assay type: functional, cell-based
HCT-116 [5] = assay: Cytotoxicity against human HCT-116 cells assessed as inhibition of cell growth by MTT assay; assay type: functional, cell-based
[6] = Cytotoxicity against human MCF7/Topo cells assessed as inhibition of cell growth by MTT assay; assay type: functional, cell-based
PANC-1 = assay: Cytotoxicity against human PANC-1 cells assessed as inhibition of cell growth by MTT assay; assay type: functional, cell-based
[7] = Cytotoxicity against chicken heart fibroblast cells; assay type: toxicity, cell-based, Gallus gallus
518A2 = assay: Cytotoxicity against human 518A2 cells assessed as inhibition of cell growth by MTT assay; assay type: functional, cell-based
PC-3 [8] = assay: Cytotoxicity against human PC-3 cells assessed as inhibition of cell growth by SRB assay; assay type: functional, cell-based
[9] = molecular target: Histone deacetylase (Homo sapiens) (UniProt Q13547+O15379+Q9UBN7+Q92769+Q9UQL6+Q8WUI4+Q9BY41+Q96DB2+P56524+Q9UKV0+Q969S8); assay: Potency index, ratio of vorinostat IC50 to test compound IC50 for inhibition of HDAC (unknown origin); assay type: protein assay
Hep 3B2 = assay: Cytotoxicity against human Hep3B cells assessed as inhibition of cell growth by MTT assay; assay type: functional
A549 = assay: Cytotoxicity against human A549 cells assessed as inhibition of cell growth by SRB assay; assay type: functional
HCT-116 [10] = assay: Cytotoxicity against human HCT-116 cells assessed as inhibition of cell growth by SRB assay; assay type: functional, cell-based
U-937 [11] = assay: Cytotoxicity against human U-937 cells assessed as inhibition of cell growth by MTT assay; assay type: functional, cell-based
PC-3 [12] = assay: Cytotoxicity against human PC-3 cells assessed as inhibition of cell growth by MTT assay; assay type: functional, cell-based
K562 = assay: Cytotoxicity against human K562 cells assessed as inhibition of cell growth by MTT assay; assay type: functional, cell-based
ES-2 = assay: Cytotoxicity against human ES2 cells assessed as inhibition of cell growth by MTT assay; assay type: functional, cell-based
PLC-PRF-5 = assay: Cytotoxicity against human PLC-PRF-5 cells assessed as inhibition of cell growth by MTT assay; assay type: functional, cell-based
MCF7 [13] = assay: Cytotoxicity against human MCF7 cells assessed as inhibition of cell growth by MTT assay; assay type: functional, cell-based

Sequence of Histone deacetylase 8 (Q9BY41 whole entry): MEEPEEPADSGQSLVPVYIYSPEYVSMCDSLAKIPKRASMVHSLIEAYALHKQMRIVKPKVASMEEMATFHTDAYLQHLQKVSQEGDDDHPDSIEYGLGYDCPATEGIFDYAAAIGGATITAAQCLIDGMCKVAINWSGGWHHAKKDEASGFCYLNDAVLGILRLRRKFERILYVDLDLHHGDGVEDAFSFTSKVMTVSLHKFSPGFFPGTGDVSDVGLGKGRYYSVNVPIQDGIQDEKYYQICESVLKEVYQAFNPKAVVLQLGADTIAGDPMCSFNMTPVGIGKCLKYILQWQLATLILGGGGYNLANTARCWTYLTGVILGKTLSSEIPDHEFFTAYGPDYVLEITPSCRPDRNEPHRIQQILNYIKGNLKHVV
Sequence of Histone deacetylase 2 (Q92769 whole entry): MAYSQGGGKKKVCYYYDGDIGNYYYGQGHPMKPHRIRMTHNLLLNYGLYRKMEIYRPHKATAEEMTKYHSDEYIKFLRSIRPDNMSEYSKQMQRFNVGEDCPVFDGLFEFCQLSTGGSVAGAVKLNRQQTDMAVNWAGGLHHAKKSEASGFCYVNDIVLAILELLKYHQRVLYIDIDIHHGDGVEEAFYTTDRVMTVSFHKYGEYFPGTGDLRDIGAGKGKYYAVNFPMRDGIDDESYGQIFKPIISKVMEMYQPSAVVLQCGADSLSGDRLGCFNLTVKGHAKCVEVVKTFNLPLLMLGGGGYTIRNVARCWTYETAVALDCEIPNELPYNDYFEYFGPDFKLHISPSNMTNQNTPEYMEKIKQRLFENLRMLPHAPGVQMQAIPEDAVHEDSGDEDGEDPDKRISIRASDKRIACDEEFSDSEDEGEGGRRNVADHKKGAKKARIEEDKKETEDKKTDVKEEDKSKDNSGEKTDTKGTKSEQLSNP

Compound O=C(NO)c1cn(C2CCN(C(=O)Cc3ccc4ccccc4c3)CC2)nn1 has an IC50 (Histone deacetylase 2) of 1000 nM, an IC50 (Histone deacetylase 8) of 1000 nM and an IC50 [1] of 1000 nM. It also gave an IC50 (MCF7 [2]) of 1200 nM, an IC50 (SH-SY5Y) of 1200 nM and an IC50 (Histone deacetylase 1) of 1000 nM. The IC50 (Histone deacetylase 3) was 1000 nM, the IC50 (NCI-H929) was 1200 nM and the IC50 (U-266) was 1200 nM. For the same compound, the IC50 (U-937 [3]) was 1200 nM and the IC50 (HL-60) was 1200 nM.
For COc1cc(/C=C2\N=C(c3ccccc3)N(n3c(SCC(=O)NO)nnc3-c3ccccc3)C2=O)ccc1O, the GI50 (MCF7 [4]) was 24900 nM and the IC50 (Histone deacetylase) was 90 nM.
CC(C)=CCC/C(C)=C/CC/C(C)=C/CSc1ccccc1C(=O)O [SALIRASIB] gave an IC50 (NCI-H460) of 48600 nM, an IC50 (EJ) of 48600 nM and an IC50 (SMMC-7721) of 48600 nM. It also gave an IC50 (HepG2) of 48600 nM.
COc1ccc(-c2ncn(C)c2-c2ccc(/C=C/C(=O)NO)cc2)cc1 showed an IC50 (HT-29) of 300 nM, an IC50 (KB-V1) of 300 nM and an IC50 (HCT-116 [5]) of 300 nM. It also gave an IC50 [6] of 300 nM, an IC50 (PANC-1) of 300 nM and an IC50 [7] of over 150000 nM. It also gave an IC50 (518A2) of 300 nM.
In the case of CCn1c(C)c(CCNS(=O)(=O)c2ccc(/C=C/C=C/C(=O)NO)cc2)c2ccccc21, the GI50 (PC-3 [8]) is reported as 20 nM, the Ratio IC50 [9] is reported as 35 and the GI50 (Hep 3B2) is reported as 20 nM. For the same compound, the GI50 (A549) was 20 nM, the GI50 (HCT-116 [10]) was 20 nM and the IC50 (Histone deacetylase) was 3.3 nM.
In the case of COc1cccc2c1C(=O)c1c(O)c3c(c(O)c1C2=O)C[C@@](O)(C(=O)CO)C[C@@H]3O[C@H]1C[C@H](N)[C@H](O)[C@H](C)O1 [DOXORUBICIN HYDROCHLORIDE], the GI50 (MCF7 [4]) is reported as 50200 nM.
For CC(C)C[C@H](NC(=O)[C@@H](O)[C@H](N)Cc1ccccc1)C(=O)O [UBENIMEX], the IC50 (U-937 [11]) was over 500000 nM, the IC50 (PC-3 [12]) was over 500000 nM and the IC50 (K562) was over 500000 nM. It also gave an IC50 (ES-2) of over 500000 nM, an IC50 (PLC-PRF-5) of over 500000 nM and an IC50 (HepG2) of over 500000 nM.
With CC(C)=CCC/C(C)=C/CC/C(C)=C/CSc1ccccc1C(=O)NCCCC(=O)NO the IC50 (NCI-H460) was 4930 nM, the IC50 (MCF7 [13]) was 4930 nM and the IC50 (EJ) was 4930 nM. It also gave an IC50 (SMMC-7721) of 4930 nM and an IC50 (HepG2) of 4930 nM.
With Cn1cnc(-c2ccc(F)cc2)c1-c1ccc(/C=C/C(=O)NO)cc1 the IC50 (HT-29) was 300 nM, the IC50 (KB-V1) was 300 nM and the IC50 (HCT-116 [5]) was 300 nM. The IC50 [6] was 300 nM, the IC50 (PANC-1) was 300 nM and the IC50 [7] was over 150000 nM. It also gave an IC50 (518A2) of 300 nM.
Cc1c(CCNS(=O)(=O)c2ccc(/C=C/C=C/C(=O)NO)cc2)c2ccccc2n1C gave a GI50 (PC-3 [8]) of 20 nM, a Ratio IC50 [9] of 35 and a GI50 (Hep 3B2) of 20 nM. The GI50 (A549) was 20 nM, the GI50 (HCT-116 [10]) was 20 nM and the IC50 (Histone deacetylase) was 3.4 nM.
Compound CC(C)=CCC/C(C)=C/CC/C(C)=C/CSc1ccccc1C(=O)NCCC(=O)NO has an IC50 (NCI-H460) of 4930 nM, an IC50 (MCF7 [13]) of 4930 nM and an IC50 (EJ) of 4930 nM. For the same compound, the IC50 (SMMC-7721) was 4930 nM and the IC50 (HepG2) was 4930 nM.
